Here are results for 32 molecules from patent US9023847B2, “Azaheterocyclic compounds” (Merck Patent GmbH, priority 2009, dated 2015).

The structures appear in SMILES notation.

The target of the first assay is T1, P70S6K (T412E mutant, Millipore) (Homo sapiens, UniProt P23443, T412E).
T1 construct: purchased Millipore
T1 sequence (P23443 whole entry T412E): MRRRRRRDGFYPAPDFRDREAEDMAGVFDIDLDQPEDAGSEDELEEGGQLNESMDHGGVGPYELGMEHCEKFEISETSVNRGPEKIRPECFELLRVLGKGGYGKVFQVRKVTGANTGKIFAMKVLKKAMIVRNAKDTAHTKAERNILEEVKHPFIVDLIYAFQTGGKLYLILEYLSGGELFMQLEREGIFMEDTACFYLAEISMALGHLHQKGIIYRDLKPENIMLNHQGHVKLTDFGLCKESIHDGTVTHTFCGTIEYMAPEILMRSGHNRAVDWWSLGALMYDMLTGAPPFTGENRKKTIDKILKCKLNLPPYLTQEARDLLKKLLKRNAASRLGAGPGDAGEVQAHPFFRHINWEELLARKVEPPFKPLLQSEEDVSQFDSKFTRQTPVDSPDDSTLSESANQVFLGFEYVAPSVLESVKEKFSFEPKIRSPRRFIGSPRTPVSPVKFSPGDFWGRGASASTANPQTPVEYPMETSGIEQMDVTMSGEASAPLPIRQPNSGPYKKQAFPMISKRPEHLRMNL
Nature of the assay: p70S6K enzyme assay. It is filed as biochemical. The conditions noted are these: Table 1; 3 nM P70S6K, 24 μM ATP, 90 min at 25° C.; read-out: p70S6K inhibition (IC50). The protocol:
P70S6K inhibitor compounds are diluted and plated in 96 well plates. A reaction mixture including the following components is then added to the compound plate to initiate the enzyme reaction; P70S6K (3 nM, T412E mutant, Millipore) is mixed with 24 μM ATP in an assay buffer containing 100 mM Hepes (pH 7.5), 5 mM MgCl2, 1 mM DTT, 0.015% Brij and 1 μM of the substrate peptide FITC-AHA-AKRRRLSSLRA-OH (derived from the S6 ribosomal protein sequence, FITC=fluorescein isothiocyanate, AHA=6-aminohexanoic acid). The reaction is incubated for 90 min at 25° C., before the addition of 10 mM EDTA to stop the reaction. The proportion of substrate and product (phosphorylated) peptide is analysed on a Caliper Life Sciences Lab Chip 3000, using a pressure of −1.4 psi, and upstream and downstream voltages of −3000 and −700 respectively. Product peaks are resolved before substrate peaks on the resulting chromatograms.
What is called IC50 is the point on the concentration scale where inhibition reaches its midpoint. `O=C(NCCc1ccc(F)cc1)c1sccc1Nc1ncnc2[nH]ccc12` [Example 145, 3-(7H-Pyrrolo[2,3-d]pyrimidin-4-ylamino)-thiophene-2-carboxylic acid [2-(4-fluoro-phenyl)-ethyl]-amide]: the IC50 was less than 100 nM.

Consider `O=C(NCCc1ccc(Br)cc1)c1sccc1Nc1ncnc2[nH]ccc12` [Example 146, 3-(7H-Pyrrolo[2,3-d]pyrimidin-4-ylamino)-thiophene-2-carboxylic acid [2-(4-bromo-phenyl)-ethyl]-amide], for which the IC50 was less than 100 nM. On the same count and under the same terms, the result for `CC(C)(C)OC(=O)N1CCCC(NC(=O)c2sccc2Nc2ncnc3[nH]ccc23)C1` (centres unmarked) [Example 154, 3-{[3-(7H-Pyrrolo[2,3-d]pyrimidin-4-ylamino)-thiophene-2-carbonyl]-amino}-piperidine-1-carboxylic acid tert-butyl ester] reads 100 to 1000 nM; that for `O=C(NCCNCc1ccccc1)c1sccc1Nc1ncnc2[nH]ccc12` [Example 148, 3-(7H-Pyrrolo[2,3-d]pyrimidin-4-ylamino)-thiophene-2-carboxylic acid [2-2-benzylamino-ethyl)-amide], less than 100 nM. Same read-out and setting: the result for `O=C(NCc1cccc(Cl)c1)c1occc1Nc1ncnc2[nH]ccc12` [Example 141, 3-(7H-Pyrrolo[2,3-d]pyrimidin-4-ylamino)-furan-2-carboxylic acid 3-chloro-benzylamide] reads less than 100 nM.

The same assay, now with this note: class symbol; 3 nM P70S6K, 24 μM ATP; read-out: IC50 (p70S6K).
`O=C(NCCc1cccc(Cl)c1)c1sccc1Nc1ncnc2[nH]ccc12` [Example 182, 3-(7H-Pyrrolo[2,3-d]pyrimidin-4-ylamino)-thiophene-2-carboxylic acid [2-(3-chloro-phenyl)-ethyl]-amide]: the IC50 was less than 100 nM. Still for that read-out and setting: the result for `O=C(NCCNCc1ccc2[nH]ccc2c1)c1sccc1Nc1ccnc2[nH]ccc12` [Example 59, 3-(1H-Pyrrolo[2,3-b]pyridin-4-ylamino)-thiophene-2-carboxylic acid {2-[(1H-indol-5-ylmethyl)-amino]-ethyl}-amide] reads less than 100 nM.

Regarding `CNCC(NC(=O)c1sccc1Nc1ccnc2[nH]ccc12)c1ccccc1` (centres unmarked) [Example 169, 3-(1H-Pyrrolo[2,3-b]pyridin-4-ylamino)-thiophene-2-carboxylic acid (2-methylamino-1-phenyl-ethyl)-amide], the 50% inhibitory concentration (IC50) was less than 100 nM. Still for that read-out and setting: next, `O=C(NCCNCc1cccnc1)c1sccc1Nc1ccnc2[nH]ccc12` [Example 61, 3-(1H-Pyrrolo[2,3-b]pyridin-4-ylamino)-thiophene-2-carboxylic acid {2-[(pyridin-3-ylmethyl)-amino]-ethyl}-amide]: 100 to 1000 nM; `O=C(NCCNCc1cccc(OC(F)(F)F)c1)c1sccc1Nc1ccnc2[nH]ccc12` [Example 50, 3-(1H-Pyrrolo[2,3-b]pyridin-4-ylamino)-thiophene-2-carboxylic acid [2-(3-trifluoromethoxy-benzylamino)-ethyl]-amide]: less than 100 nM. On the same count and under the same terms, next, `O=C(NC1CCCNC1)c1sccc1Nc1ccnc2[nH]ccc12` (centres unmarked) [Example 9, 3-(1H-Pyrrolo[2,3-b]pyridin-4-ylamino)-thiophene-2-carboxylic acid piperidin-3-ylamide]: 100 to 1000 nM; `COc1cccc(C(CN(C)C)NC(=O)c2sccc2Nc2ccnc3[nH]ccc23)c1` (centres unmarked) [Example 160, 3-(1H-Pyrrolo[2,3-b]pyridin-4-ylamino)-thiophene-2-carboxylic acid [2-dimethylamino-1-(3-methoxy-phenyl)-ethyl]-amide]: less than 100 nM. The same measure, in the same setting: next, `O=C(NCCNCc1ccccc1)c1sccc1Nc1ccnc2[nH]ccc12` [Example 29, 3-(1H-Pyrrolo[2,3-b]pyridin-4-ylamino)-thiophene-2-carboxylic acid (2-benzylamino-ethyl)-amide]: less than 100 nM. `O=C(N[C@@H](CO)[C@@H](O)c1ccccc1)c1sccc1Nc1ccnc2[nH]ccc12` [Example 84, 3-(1H-Pyrrolo[2,3-b]pyridin-4-ylamino)-thiophene-2-carboxylic acid ((1S,2S)-2-hydroxy-1-hydroxymethyl-2-phenyl-ethyl)-amide]: the IC50 fell in the range of 1000 to 10000 nM. Still for that read-out and setting: next, `COc1ccc(C(CN)NC(=O)c2sccc2Nc2ccnc3[nH]ccc23)cc1OC` (centres unmarked) [Example 113, 3-(1H-Pyrrolo[2,3-b]pyridin-4-ylamino)-thiophene-2-carboxylic acid [2-amino-1-(3,4-dimethoxy-phenyl)-ethyl]-amide]: less than 100 nM. Same read-out and setting: next, `O=C(c1sccc1Nc1ccnc2[nH]ccc12)N1CCC(NCc2ccccc2)CC1` [Example 65, (4-Benzylamino-piperidin-1-yl)-[3-(1H-pyrrolo[2,3-b]pyridin-4-ylamino)-thiophen-2-yl]-methanone]: 1000 to 10000 nM; `COc1ccc(CNCCNC(=O)c2sccc2Nc2ccnc3[nH]ccc23)cc1` [Example 40, 3-(1H-Pyrrolo[2,3-b]pyridin-4-ylamino)-thiophene-2-carboxylic acid [2-(4-methoxy-benzylamino)-ethyl]-amide]: less than 100 nM. Regarding `CC(C)C[C@@H](CO)NC(=O)c1sccc1Nc1ccnc2[nH]ccc12` [Example 97, 3-(1H-Pyrrolo[2,3-b]pyridin-4-ylamino)-thiophene-2-carboxylic acid ((S)-1-hydroxymethyl-3-methyl-butyl)-amide], the IC50 lay within 100 to 1000 nM.

For `CC(NCCNC(=O)c1sccc1Nc1ccnc2[nH]ccc12)c1ccccc1` (centres unmarked) [Example 131, 3-(1H-Pyrrolo[2,3-b]pyridin-4-ylamino)-thiophene-2-carboxylic acid [2-(1-phenyl-ethylamino)-ethyl]-amide], the IC50 is less than 100 nM.

`CNCC(NC(=O)c1sccc1Nc1ccnc2[nH]ccc12)c1cccc(F)c1` (centres unmarked) [Example 167, 3-(1H-Pyrrolo[2,3-b]pyridin-4-ylamino)-thiophene-2-carboxylic acid [1-(3-fluoro-phenyl)-2-methylamino-ethyl]-amide]: the IC50 is less than 100 nM. On to `NC[C@@H](NC(=O)c1sccc1Nc1ccnc2[nH]ccc12)c1ccc(Cl)c(Cl)c1` (stereo in doubt) [Example 125, 3-(1H-Pyrrolo[2,3-b]pyridin-4-ylamino)-thiophene-2-carboxylic acid [2-amino-1-(3,4-dichloro-phenyl)-ethyl]-amide], for which the IC50 was less than 100 nM. Regarding `CC(O)CNC(=O)c1sccc1Nc1ccnc2[nH]ccc12` (centres unmarked) [Example 11, 3-(1H-Pyrrolo[2,3-b]pyridin-4-ylamino)-thiophene-2-carboxylic acid (2-hydroxy-propyl)-amide], the IC50 lay within 100 to 1000 nM. Same read-out and setting: next, `COc1cccc(CCNC(=O)c2sccc2Nc2ccnc3[nH]ccc23)c1` [Example 26, 3-(1H-Pyrrolo[2,3-b]pyridin-4-ylamino)-thiophene-2-carboxylic acid [2-(3-methoxy-phenyl)-ethyl]-amide]: less than 100 nM; `O=C(NCCN1CCOCC1)c1sccc1Nc1ccnc2[nH]ccc12` [Example 16, 3-(1H-Pyrrolo[2,3-b]pyridin-4-ylamino)-thiophene-2-carboxylic acid (2-morpholin-4-yl-ethyl)-amide]: 100 to 1000 nM. As for `Cc1c[nH]c2ncnc(Nc3ccsc3C(=O)NCc3cccc(Cl)c3)c12` [Example 187, 3-(5-Methyl-7H-pyrrolo[2,3-d]pyrimidin-4-ylamino)-thiophene-2-carboxylic acid 3-chloro-benzylamide], the IC50 was less than 100 nM. Same read-out and setting: next, `NCC(NC(=O)c1ccsc1Nc1ccnc2[nH]ccc12)c1ccc(C(F)(F)F)cc1` (centres unmarked) [Example 133, 2-(1H-Pyrrolo[2,3-b]pyridin-4-ylamino)-thiophene-3-carboxylic acid [2-amino-1-(4-trifluoromethyl-phenyl)-ethyl]-amide]: less than 100 nM; `O=C(NCc1cccc(Cl)c1)c1sccc1Nc1ncnc2[nH]ccc12` [Example 173, 3-(7H-Pyrrolo[2,3-d]pyrimidin-4-ylamino)-thiophene-2-carboxylic acid 3-chloro-benzylamide]: less than 100 nM; `O=C(N[C@H](CN1C(=O)c2ccccc2C1=O)c1ccccc1)c1ccsc1Nc1ccnc2[nH]ccc12` [Example 134, (S)-[3-(1H-Pyrrolo[2,3-b]pyridin-4-ylamino)-thiophene-2-carboxylic acid[2-(1,3-dioxo-1,3-dihydro-isoindol-2-yl)-1-phenyl-ethyl]-amide]]: less than 100 nM.

On to `O=C(NCCCCO)c1sccc1Nc1ccnc2[nH]ccc12` [Example 31, 3-(1H-Pyrrolo[2,3-b]pyridin-4-ylamino)-thiophene-2-carboxylic acid (4-hydroxy-butyl)-amide], for which the IC50 lay within 100 to 1000 nM. Still for that read-out and setting: the result for `COc1ccccc1CNCCNC(=O)c1sccc1Nc1ccnc2[nH]ccc12` [Example 60, 3-(1H-Pyrrolo[2,3-b]pyridin-4-ylamino)-thiophene-2-carboxylic acid [2-(2-methoxy-benzylamino)-ethyl]-amide] reads less than 100 nM; that for `O=C(NC(CO)C(=O)NCc1ccccc1)c1sccc1Nc1ccnc2[nH]ccc12` (centres unmarked) [Example 88, 3-(1H-Pyrrolo[2,3-b]pyridin-4-ylamino)-thiophene-2-carboxylic acid (1-benzylcarbamoyl-2-hydroxy-ethyl)-amide], 100 to 1000 nM; that for `O=C(NCCc1ccc(Br)cc1)c1sccc1Nc1ncnc2[nH]ccc12` [Example 180, 3-(7H-Pyrrolo[2,3-d]pyrimidin-4-ylamino)-thiophene-2-carboxylic acid [2-(4-bromo-phenyl)-ethyl]-amide], less than 100 nM.
